Assay results: US20210045385A1, “PYRIDAZINONE-SUBSTITUTED KETOXIMES AS HERBICIDES” (FMC Corporation, priority 2018, published 2021)

Experiments:
Format in all cases: in vivo
[1] = test system: Italian ryegrass (Lolium multiflorum); experiment: Test A preemergence, visual plant response rating; settings: for Ryegrass, Italian plant response rating: 125 g ai/ha, preemergence, 0 to 100 scale, 0 no effect, 100 complete control; for Ryegrass, Italian plant response rating (0 to 100 scale): 500 g ai/ha Preemergence, approx. 10 days
Method in brief: (§1)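 Preemergence: seeds in loam/sand blend given directed soil spray of compound in non-phytotoxic solvent with surfactant. Postemergence: plants 2–10 cm, one- to two-leaf stage, sprayed with same formulation. Visual injury rated vs untreated controls after ~10 days in greenhouse, 0 (no effect) to 100 (complete control).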

[2] = test system: barnyardgrass (Echinochloa crus-galli); experiment: Test A preemergence, visual plant response rating; settings: for Barnyardgrass plant response rating: 125 g ai/ha, preemergence, 0 to 100 scale, 0 no effect, 100 complete control; for Barnyardgrass plant response rating (0 to 100 scale): 500 g ai/ha Preemergence, approx. 10 days
Method in brief: as §1

[3] = test system: foxtail, giant (giant foxtail, Setaria faberii); experiment: Test A preemergence, visual plant response rating; settings: for Foxtail, Giant plant response rating: 125 g ai/ha, preemergence, 0 to 100 scale, 0 no effect, 100 complete control; for Foxtail, Giant plant response rating (0 to 100 scale): 500 g ai/ha Preemergence, approx. 10 days
Method in brief: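 Compared with untreated controls, treated plants received a visual injury score on a 0–100 scale around 10 days after application. The compound, in a non-phytotoxic solvent with surfactant, was given as a preemergence soil spray or postemergence at the one- to two-leaf stage.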

kochia (Kochia scoparia) [4] = experiment: Test A preemergence, visual plant response rating; settings: for Kochia plant response rating: 125 g ai/ha, preemergence, 0 to 100 scale, 0 no effect, 100 complete control; for Kochia plant response rating (0 to 100 scale): 500 g ai/ha Preemergence, approx. 10 days
Method in brief: as §1

[5] = test system: pigweed (Amaranthus retroflexus); experiment: Test A preemergence, visual plant response rating; settings: for Pigweed plant response rating: 125 g ai/ha, preemergence, 0 to 100 scale, 0 no effect, 100 complete control; for Pigweed plant response rating (0 to 100 scale): 500 g ai/ha Preemergence, approx. 10 days
Method in brief: as §1

[6] = test system: ragweed (common ragweed, Ambrosia elatior); experiment: Test A preemergence, visual plant response rating; settings: for Ragweed plant response rating: 125 g ai/ha, preemergence, 0 to 100 scale, 0 no effect, 100 complete control; for Ragweed plant response rating (0 to 100 scale): 500 g ai/ha Preemergence, approx. 10 days
Method in brief: as §1

[7] = test system: Italian ryegrass (Lolium multiflorum); experiment: Test A postemergence, visual plant response rating; settings: for Ryegrass, Italian plant response rating (0 to 100 scale): 500 g ai/ha, postemergence, 0 is no effect, 100 is complete control; for Ryegrass, Italian plant response rating: Postemergence, 125 g ai/ha, 0 to 100 scale (0 no effect, 100 complete control)
Method in brief: as §1

[8] = test system: barnyardgrass (Echinochloa crus-galli); experiment: Test A postemergence, visual plant response rating; settings: for Barnyardgrass plant response rating (0 to 100 scale): 500 g ai/ha, postemergence, 0 is no effect, 100 is complete control; for Barnyardgrass plant response rating: Postemergence, 125 g ai/ha, 0 to 100 scale (0 no effect, 100 complete control)
Method in brief: as §1

[9] = test system: blackgrass (Alopecurus myosuroides); experiment: Test A postemergence, visual plant response rating; settings: for Blackgrass plant response rating (0 to 100 scale): 500 g ai/ha, postemergence, 0 is no effect, 100 is complete control; for Blackgrass plant response rating: Postemergence, 125 g ai/ha, 0 to 100 scale (0 no effect, 100 complete control)
Method in brief: as §1

corn (Zea mays) = experiment: Test A postemergence, visual plant response rating; settings: for Corn plant response rating (0 to 100 scale): 500 g ai/ha, postemergence, 0 is no effect, 100 is complete control; for Corn plant response rating: Postemergence, 125 g ai/ha, 0 to 100 scale (0 no effect, 100 complete control)
Method in brief: as §1

[10] = test system: foxtail, giant (giant foxtail, Setaria faberii); experiment: Test A postemergence, visual plant response rating; settings: for Foxtail, Giant plant response rating (0 to 100 scale): 500 g ai/ha, postemergence, 0 is no effect, 100 is complete control; for Foxtail, Giant plant response rating: Postemergence, 125 g ai/ha, 0 to 100 scale (0 no effect, 100 complete control)
Method in brief: as §1

[11] = test system: galium (catchweed bedstraw, Galium aparine); experiment: Test A postemergence, visual plant response rating; settings: for Galium plant response rating (0 to 100 scale): 500 g ai/ha, postemergence, 0 is no effect, 100 is complete control; for Galium plant response rating: Postemergence, 125 g ai/ha, 0 to 100 scale (0 no effect, 100 complete control)
Method in brief: as §1

kochia (Kochia scoparia) [12] = experiment: Test A postemergence, visual plant response rating; settings: for Kochia plant response rating (0 to 100 scale): 500 g ai/ha, postemergence, 0 is no effect, 100 is complete control; for Kochia plant response rating: Postemergence, 125 g ai/ha, 0 to 100 scale (0 no effect, 100 complete control)
Method in brief: as §1

[13] = test system: pigweed (Amaranthus retroflexus); experiment: Test A postemergence, visual plant response rating; settings: for Pigweed plant response rating (0 to 100 scale): 500 g ai/ha, postemergence, 0 is no effect, 100 is complete control; for Pigweed plant response rating: Postemergence, 125 g ai/ha, 0 to 100 scale (0 no effect, 100 complete control)
Method in brief: as §1

[14] = test system: ragweed (common ragweed, Ambrosia elatior); experiment: Test A postemergence, visual plant response rating; settings: for Ragweed plant response rating (0 to 100 scale): 500 g ai/ha, postemergence, 0 is no effect, 100 is complete control; for Ragweed plant response rating: Postemergence, 125 g ai/ha, 0 to 100 scale (0 no effect, 100 complete control)
Method in brief: as §1

[15] = test system: wheat (Triticum aestivum); experiment: Test A postemergence, visual plant response rating; settings: for Wheat plant response rating (0 to 100 scale): 500 g ai/ha, postemergence, 0 is no effect, 100 is complete control; for Wheat plant response rating: Postemergence, 125 g ai/ha, 0 to 100 scale (0 no effect, 100 complete control)
Method in brief: as §1

[16] = test system: barnyardgrass (Echinochloa crus-galli); experiment: Test B flooded paddy test, visual plant response rating; settings: 250 g ai/ha, Flood, applied to paddy water, 2-leaf stage, evaluated after 13 to 15 days
Method in brief: (§2)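 2-leaf plants; pots flooded 3 cm over soil surface; compound dosed straight into the floodwater; depth kept constant; greenhouse 13–15 d; visual rating vs. untreated controls.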

[17] = test system: ducksalad (Heteranhera limosa); experiment: as above; settings: 250 g ai/ha, Flood, applied to paddy water, 2-leaf stage, evaluated after 13 to 15 days
Method in brief: as §2

rice (Oryza sativa) = experiment: as above; settings: 250 g ai/ha, Flood, applied to paddy water, 2-leaf stage, evaluated after 13 to 15 days
Method in brief: as §2

[18] = test system: sedge, umbrella (small-flower umbrella sedge, Cyperus difformis); experiment: as above; settings: 250 g ai/ha, Flood, applied to paddy water, 2-leaf stage, evaluated after 13 to 15 days
Method in brief: as §2

Row | SMILES | Ryegrass, Italian plant response rating [1] | Ryegrass, Italian plant response rating (0 to 100 scale) [1] | Barnyardgrass plant response rating [2] | Barnyardgrass plant response rating (0 to 100 scale) [2] | Foxtail, Giant plant response rating [3] | Foxtail, Giant plant response rating (0 to 100 scale) [3] | Kochia plant response rating (kochia (Kochia scoparia) [4]) | Kochia plant response rating (0 to 100 scale) (kochia (Kochia scoparia) [4]) | Pigweed plant response rating [5] | Pigweed plant response rating (0 to 100 scale) [5] | Ragweed plant response rating [6] | Ragweed plant response rating (0 to 100 scale) [6] | Ryegrass, Italian plant response rating (0 to 100 scale) [7] | Ryegrass, Italian plant response rating [7] | Barnyardgrass plant response rating (0 to 100 scale) [8] | Barnyardgrass plant response rating [8] | Blackgrass plant response rating (0 to 100 scale) [9] | Blackgrass plant response rating [9] | Corn plant response rating (0 to 100 scale) (corn (Zea mays)) | Corn plant response rating (corn (Zea mays)) | other results
1 | CCc1cccc(C(=NOC)c2c(O)c(C)nn(C)c2=O)c1 [Compound 36] | 30 | 50 | 10 | 20 | 0 | 50 | 10 | 50 | 10 | 30 | 10 | 70 | 50 | 30 | 0 | 0 | 20 | 10 | 0 | 20 | Foxtail, Giant plant response rating (0 to 100 scale) [10]: 10; Foxtail, Giant plant response rating [10]: 0; Galium plant response rating (0 to 100 scale) [11]: 70; Galium plant response rating [11]: 50; Kochia plant response rating (0 to 100 scale) (kochia (Kochia scoparia) [12]): 70; Kochia plant response rating (kochia (Kochia scoparia) [12]): 60; Pigweed plant response rating (0 to 100 scale) [13]: 70; Pigweed plant response rating [13]: 20; Ragweed plant response rating (0 to 100 scale) [14]: 80; Ragweed plant response rating [14]: 70; Wheat plant response rating (0 to 100 scale) [15]: 0; Wheat plant response rating [15]: 0; Plant response rating, Barnyardgrass (0 to 100 scale, 0 is no effect, 100 is complete control) [16]: 0; Plant response rating, Ducksalad (0 to 100 scale, 0 is no effect, 100 is complete control) [17]: 0; Plant response rating, Rice (0 to 100 scale, 0 is no effect, 100 is complete control) (rice (Oryza sativa)): 0; Plant response rating, Sedge, Umbrella (0 to 100 scale, 0 is no effect, 100 is complete control) [18]: 0
2 | CCc1ccccc1C(=NOC)c1c(O)c(C)nn(C)c1=O [Compound 37] | 40 | 60 | 0 | 20 | 30 | 80 | 0 | 80 | 40 | 90 | 10 | 80 | 90 | 80 | 20 | 10 | 80 | 60 | 30 | 0 | Foxtail, Giant plant response rating (0 to 100 scale) [10]: 70; Foxtail, Giant plant response rating [10]: 30; Galium plant response rating (0 to 100 scale) [11]: 90; Galium plant response rating [11]: 80; Kochia plant response rating (0 to 100 scale) (kochia (Kochia scoparia) [12]): 80; Kochia plant response rating (kochia (Kochia scoparia) [12]): 60; Pigweed plant response rating (0 to 100 scale) [13]: 90; Pigweed plant response rating [13]: 70; Ragweed plant response rating (0 to 100 scale) [14]: 80; Ragweed plant response rating [14]: 60; Wheat plant response rating (0 to 100 scale) [15]: 10; Wheat plant response rating [15]: 0; Plant response rating, Barnyardgrass (0 to 100 scale, 0 is no effect, 100 is complete control) [16]: 0; Plant response rating, Ducksalad (0 to 100 scale, 0 is no effect, 100 is complete control) [17]: 0; Plant response rating, Rice (0 to 100 scale, 0 is no effect, 100 is complete control) (rice (Oryza sativa)): 0; Plant response rating, Sedge, Umbrella (0 to 100 scale, 0 is no effect, 100 is complete control) [18]: 0
